Measured values as given in ChEMBL document CHEMBL3885861, “Open TG-GATES”.

Species on record: Rattus norvegicus
Experiment: Open TG-GATES - Regimen: Daily Repeat
Type: toxicity, organism-based, Sprague-Dawley
Parameters: regimen Daily Repeat, gender Male, age 6 weeks
Details: in vivo, po, 30 mg/kg, route gavage, dose level Low; for APTT / Bas / Eos / Fbg / Hb / Ht / Lym / MCH / MCHC / MCV / Mono / Neu / PT / Plat / RBC / Ret / WBC: tissue Blood; for KIDNEY_L / KIDNEY_R / KIDNEY_TOTAL: tissue Kidney; for LIVER: tissue Liver; for A/G / ALP / ALT / AST / BUN / CRE / Ca / Cl / DBIL / GLC / IP / K / LDH / Na / PL / RALB / TBIL / TC / TG / TP / gamma-GTP: tissue Plasma

## CCCNC(=O)NS(=O)(=O)c1ccc(Cl)cc1 [CHLORPROPAMIDE]
72 h, time 3 day
  TERMINAL_BW: 215.3 g
  APTT: 21.2 s
  Bas: 0%
  Eos: 1.2%
  Fbg: 265 mg/dL
  Hb: 13.2 g/dL
  Ht: 39.6%
  Lym: 80.6%
  MCH: 21.1 pg
  MCHC: 33.2%
  MCV: 63.3 fL
  Mono: 2.4%
  Neu: 15%
  PT: 15.8 s
  Plat: 116.1 x10_4/uL
  RBC: 626 x10_4/ul
  Ret: 7%
  WBC: 83.4 x10_2/uL
  KIDNEY_L: 0.9 g
  KIDNEY_R: 0.9 g
  KIDNEY_TOTAL: 1.8 g
  LIVER: 10.1 g
  A/G: 0.9
  ALP: 1696 IU/L
  ALT: 49.6 IU/L
  AST: 73.2 IU/L
  BUN: 17.8 mg/dL
  CRE: 0.2 mg/dL
  Ca: 10.6 mg/dL
  Cl: 106 meq/L
  DBIL: 0.01 mg/dL
  GLC: 174 mg/dL
  IP: 7.5 mg/dL
  K: 4.1 meq/L
  LDH: 80.8 IU/L
  Na: 143.2 meq/L
  PL: 151 mg/dL
  RALB: 2.6 g/dL
  TBIL: 0.024 mg/dL
  TC: 78.8 mg/dL
  TG: 108 mg/dL
  TP: 5.7 g/dL
  gamma-GTP: 1 IU/L
[…], time 7 day
  TERMINAL_BW: 245.8 g
  APTT: 19.1 s
  Bas: 0%
  Eos: 1%
  Fbg: 284.8 mg/dL
  Hb: 13.7 g/dL
  Ht: 41.3%
  Lym: 79.6%
  MCH: 21.3 pg
  MCHC: 33.2%
  MCV: 64.2 fL
  Mono: 1.8%
  Neu: 16.2%
  PT: 15.5 s
  Plat: 127.7 x10_4/uL
  RBC: 643 x10_4/ul
  Ret: 5.9%
  WBC: 95.2 x10_2/uL
  KIDNEY_L: 1 g
  KIDNEY_R: 1 g
  KIDNEY_TOTAL: 2 g
  LIVER: 11.3 g
  A/G: 0.8
  ALP: 1568.6 IU/L
  ALT: 42 IU/L
  AST: 66.8 IU/L
  BUN: 16.2 mg/dL
  CRE: 0.2 mg/dL
  Ca: 10.9 mg/dL
  Cl: 105.6 meq/L
  DBIL: 0.018 mg/dL
  GLC: 182.8 mg/dL
  IP: 7.4 mg/dL
  K: 3.9 meq/L
  LDH: 93.8 IU/L
  Na: 143.4 meq/L
  PL: 157.6 mg/dL
  RALB: 2.7 g/dL
  TBIL: 0.032 mg/dL
  TC: 76.4 mg/dL
  TG: 136.6 mg/dL
  TP: 5.8 g/dL
  gamma-GTP: 1 IU/L
[…], time 14 day
  TERMINAL_BW: 303 g
  APTT: 16.7 s
  Bas: 0%
  Eos: 0.8%
  Fbg: 263 mg/dL
  Hb: 14.3 g/dL
  Ht: 43.2%
  Lym: 79.6%
  MCH: 20.8 pg
  MCHC: 33.2%
  MCV: 62.7 fL
  Mono: 2.6%
  Neu: 15.6%
  PT: 16.1 s
  Plat: 107.2 x10_4/uL
  RBC: 688.6 x10_4/ul
  Ret: 4.6%
  WBC: 100.6 x10_2/uL
  KIDNEY_L: 1.2 g
  KIDNEY_R: 1.2 g
  KIDNEY_TOTAL: 2.4 g
  LIVER: 13.3 g
  A/G: 0.8
  ALP: 1602.6 IU/L
  ALT: 41.8 IU/L
  AST: 66.6 IU/L
  BUN: 18.6 mg/dL
  CRE: 0.2 mg/dL
  Ca: 10.6 mg/dL
  Cl: 103.6 meq/L
  DBIL: 0.012 mg/dL
  GLC: 204.8 mg/dL
  IP: 7.7 mg/dL
  K: 4 meq/L
  LDH: 123.6 IU/L
  Na: 142.6 meq/L
  PL: 155 mg/dL
  RALB: 2.6 g/dL
  TBIL: 0.028 mg/dL
  TC: 74.4 mg/dL
  TG: 143.8 mg/dL
  TP: 5.8 g/dL
  gamma-GTP: 0.8 IU/L
[…], time 28 day
  TERMINAL_BW: 389 g
  APTT: 18.8 s
  Bas: 0%
  Eos: 1%
  Fbg: 296.4 mg/dL
  Hb: 14.9 g/dL
  Ht: 45.1%
  Lym: 78.8%
  MCH: 19.4 pg
  MCHC: 33%
  MCV: 58.9 fL
  Mono: 2.8%
  Neu: 16.2%
  PT: 16 s
  Plat: 106.6 x10_4/uL
  RBC: 766.6 x10_4/ul
  Ret: 2.5%
  WBC: 98 x10_2/uL
  KIDNEY_L: 1.4 g
  KIDNEY_R: 1.4 g
  KIDNEY_TOTAL: 2.8 g
  LIVER: 16.1 g
  A/G: 0.8
  ALP: 1184 IU/L
  ALT: 39 IU/L
  AST: 64.8 IU/L
  BUN: 18.2 mg/dL
  CRE: 0.2 mg/dL
  Ca: 10.8 mg/dL
  Cl: 104.8 meq/L
  DBIL: 0.01 mg/dL
  GLC: 198.4 mg/dL
  IP: 6.7 mg/dL
  K: 3.6 meq/L
  LDH: 99.8 IU/L
  Na: 144.8 meq/L
  PL: 163.8 mg/dL
  RALB: 2.8 g/dL
  TBIL: 0.018 mg/dL
  TC: 77.8 mg/dL
  TG: 165.6 mg/dL
  TP: 6.2 g/dL
  gamma-GTP: 1.6 IU/L
